# In patent US5128344A, “Sampangine and derivatives useful as an antifungal agent” (University of Mississippi, priority 1990, dated 1992):
# “Also recorded” adds a separate entry of the source.
# Legend:
# [1] = tested on: Aspergillus fumigatus; test: MIC, twofold serial broth dilution assay, Aspergillus fumigatus; type: cell-based, Aspergillus fumigatus ATCC 26934; conditions: Af, 30°, 48 hours
# Protocol: (§1) The generic name for the compound is 3-Methoxysampangine. The antifungal activity of the compound was determined by in vitro evaluation against Candida albicans NIH B311, Cryptococcus neoformans ATCC 32264, and Aspergillus fumigatus ATCC 26934 using the known agar-well diffusion assay techniques with the following modifications.
# (§2) Candida albicans NIH B311 used to induce experimental disseminated candidiasis was used for the initial qualitative evaluation of anticandidal activity. The organism was grown in Sabouraud-dextrose broth (SDB) for 24 hours at 37°, at which time the cells were harvested by centrifugation at (4°, 2000 rpm, 3 min.). After centrifugation, the cells were washed and suspended in sterile 0.9% saline to give a final concentration of 10^6 colony forming units (CFU) per ml (adjusted using a hemocytometer). Inocula of Cryptococcus neoformans and Aspergillus fumigatus were prepared by suspension of the surface growth of stock agar slants in sterile H2 O. Culture plates (15×100 mm) for the qualitative assay were prepared from 25 ml of Sabouraud-dextrose agar for Candida albicans, and Mycophil™ agar for Cryptococcus neoformans and Aspergillus fumigatus. Using sterile cotton swabs, the plates were streaked with the suspension of appropriate test organism. Cylindrical plugs were removed from the agar plates by means of sterile cork borer to produce wells with a diameter of approximately 11 mm. To the well was added 100 μl of solution or suspension of an extract, fraction, or pure compound. Crude extracts and fractions were tested at a concentration of 20 mg/ml, whereas pure compounds were tested at 1 mg/ml. When solvents other than water, ethanol, methanol, dimethylsulfoxide (DMSO), dimethylformamide (DMF), or acetone were required to dissolve extracts or compounds, solvent blanks were included. Antifungal activity was recorded as the width (in mm) of the zone of inhibition, measured from the edge of the agar well to the edge of the zone, following incubation of the plates for 24 hours (37° for Candida albicans, 30° for Aspergillus fumigatus and 26° for Cryptococcus neoformans). The antifungal agents amphotericin B and ketoconazole were included as positive controls in each assay.
# (§3) The method used to determine the minimum inhibitory concentration (MIC) was the twofold serial broth dilution assay in one or more of the following broth media: yeast nitrogen broth, Mycophil™ broth and Saboraud-dextrose broth (SDB). The inoculum for the MIC determination was prepared as described above for the qualitative evaluation. Using a calibrated sterile wire loop, each tube was inoculated with 10 μl of the suspension. The MIC value was taken as the lowest concentration of compound that inhibited the growth of the test organisms after an appropriate incubation period (37° for 24 hours for Candida albicans; 30° for 48 hours for Aspergillus fumigatus; 26° for 48 hours for Cryptococcus neoformans). The antifungal agent amphotericin B was included as positive control in each assay.
# [2] = tested on: Cryptococcus neoformans; test: MIC, twofold serial broth dilution assay, Cryptococcus neoformans; type: cell-based, Cryptococcus neoformans ATCC 32264; conditions: 48 h, Cn, 26°
# Protocol: as §1, §2, §3
# [3] = tested on: Candida albicans, Cryptococcus neoformans and Aspergillus fumigatus; test: in vitro antifungal activity, overall statement in words; type: cell-based; conditions: against both yeasts and the filamentous fungus
# Protocol: as §1, §2
# The method used to determine the minimum inhibitory concentration (MIC) was the twofold serial broth dilution assay in one or more of the following broth media: yeast nitrogen broth, Mycophil™ broth and Saboraud-dextrose broth (SDB). The inoculum for the MIC determination was prepared as described above for the qualitative evaluation. Using a calibrated sterile wire loop, each tube was inoculated with 10 μl of the suspension. […]
# [4] = tested on: Candida albicans; test: MIC, twofold serial broth dilution assay, Candida albicans; type: cell-based, Candida albicans NIH B311; conditions: 24 h, 37°
# Protocol: as §2, §3
# [5] = tested on: Candida albicans; conditions: J. Natural Products 1987, Hufford et al.; cited from earlier work
# [6] = Cryptococcus neoformans, SDB (Sabouraud dextrose broth)
# [7] = Candida albicans, Ca B311, SDB (Sabouraud dextrose broth)
# [8] = YNB (yeast nitrogen base broth)
# [9] = Cryptococcus neoformans, MYCO (Mycophil broth)
# [10] = Ca B311, YNB (yeast nitrogen base broth)
# [11] = Candida albicans, Ca B311, MYCO (Mycophil broth)
structure (smiles),measurement,setting,value
COc1cnc2c3c(nccc13)C(=O)c1ccccc1-2 [3-Methoxysampangine],MIC,[1]; SDB (Sabouraud dextrose broth),3.12 µg/mL
same,MIC,[2]; [6],0.2 µg/mL
same,antifungal activity (in words),[3],significant antifungal activity; also recorded: remarkable antifungal properties
same,MIC,[4]; [7],3.12 µg/mL
O=C1c2ccccc2-c2nccc3c(Br)cnc1c23 [4-Bromosampangine],MIC,[1]; MYCO (Mycophil broth),50 µg/mL
same,MIC,[2]; [8],< 0.2 µg/mL
same,MIC,[2]; [9],< 0.2 µg/mL
same,MIC,[2]; [6],0.39 µg/mL
same,antifungal activity (in words),[3],significant antifungal activity
same,MIC,[4]; [10],12.5 µg/mL
same,MIC,[4]; [11],25 µg/mL
same,MIC,[4]; [7],25 µg/mL
COc1cnc2c3c(nccc13)-c1ccccc1C2=O [4-Methoxysampangine],MIC,[2]; [8],12.5 µg/mL
same,MIC,[2]; [9],1.56 µg/mL
same,MIC,[2]; [6],3.12 µg/mL
same,antifungal activity (in words),[3],significant antifungal activity
same,MIC,[4]; [10],3.12 µg/mL
same,MIC,[4]; [11],100 µg/mL
same,MIC,[4]; [7],100 µg/mL
"C[C@@H]1[C@H](O)[C@@H](C)/C=C/C=C/C=C/C=C/C=C/C=C/C=C/[C@H](O[C@@H]2O[C@H](C)[C@@H](O)[C@H](N)[C@@H]2O)C[C@@H]2O[C@](O)(C[C@@H](O)C[C@@H](O)[C@H](O)CC[C@@H](O)C[C@@H](O)CC(=O)O[C@H]1C)C[C@H](O)[C@H]2C(=O)O [Amphotericin B, reference compound]",MIC,[1]; MYCO (Mycophil broth),3.12 µg/mL
same,MIC,[2]; [9],0.2 µg/mL
same,MIC,[4]; [11],0.2 µg/mL
"O=C1c2ccccc2-c2nccc3c2c1nc1ccccc13 [Benzo[4,5]sampangine]",MIC,[1]; MYCO (Mycophil broth),0.39 µg/mL
same,MIC,[2]; [8],1.56 µg/mL
same,MIC,[2]; [9],< 0.2 µg/mL
same,MIC,[2]; [6],< 0.2 µg/mL
same,MIC,[4]; [10],3.12 µg/mL
same,MIC,[4]; [11],50 µg/mL
same,MIC,[4]; [7],1.56 µg/mL
O=C1c2ccccc2-c2nccc3ccnc1c23 [Sampangine],MIC,[1]; MYCO (Mycophil broth),1.56 µg/mL
same,MIC,[2]; YNB (yeast nitrogen base broth) (original),< 0.005 µg/mL
same,MIC,[2]; [8],< 0.2 µg/mL
same,MIC,[2]; [9],0.78 µg/mL
same,MIC,[2]; [6],< 0.2 µg/mL
same,antifungal activity (in words),[3],significant antifungal activity
same,MIC,"[4]; Ca B311, YNB (yeast nitrogen base broth) (original)",1.56 µg/mL
same,MIC,[4]; [10],0.78 µg/mL
same,MIC,[4]; [11],12.5 µg/mL
same,MIC,[4]; [7],6.25 µg/mL
c1ccc2c(c1)-c1nccc3ccnc-2c13 [eupolauridine],anticandidal properties (in words),[5],possibly remarkable anticandidal properties
